In patent EP4745135A1 (Gluetacs Therapeutics (Shanghai) Co., Ltd., priority 2023, dated 2025):

What was measured:
CK1α = target: T1, CK1α (Homo sapiens, UniProt P48729+Q96SW2); assay: Western blot, degradation of substrate protein in hPBMCs; assay type: cell-based
T1 construct: effects of the compounds of the present disclosure on the expression of target proteins in cells; endogenous in cells; host or cells: human PBMCs (Milecell Biotechnologies)

IKZF1 = target: T2, IKZF1 (Homo sapiens, UniProt Q13422+Q96SW2); assay: as above; assay type: cell-based
T2 construct: effects of the compounds of the present disclosure on the expression of target proteins in cells; endogenous in cells; host or cells: human PBMCs (Milecell Biotechnologies)

IKZF2 = target: T3, IKZF2 (Homo sapiens, UniProt Q96SW2+Q9UKS7); assay: as above; assay type: cell-based
T3 construct: effects of the compounds of the present disclosure on the expression of target proteins in cells; endogenous in cells; host or cells: human PBMCs (Milecell Biotechnologies)

IKZF3 = target: T4, IKZF3 (Homo sapiens, UniProt Q96SW2+Q9UKT9); assay: as above; assay type: cell-based
T4 construct: effects of the compounds of the present disclosure on the expression of target proteins in cells; endogenous in cells; host or cells: human PBMCs (Milecell Biotechnologies)

WEE1 = target: T5, WEE1 (Homo sapiens, UniProt P30291+Q96SW2); assay: as above; assay type: cell-based
T5 construct: effects of the compounds of the present disclosure on the expression of target proteins in cells; endogenous in cells; host or cells: human PBMCs (Milecell Biotechnologies)

GSPT1 = assay: as above; assay type: cell-based, Human
[1] = tested on: Human multiple myeloma cell (MM.1S); assay: Tumor cell proliferation inhibition (CellTiter-Meiluncell luminescent cell viability assay); settings: for inhibition at 0.01 µM: read-out: Inhibition Rate at 10 nM (%); for inhibition at 0.5 µM: read-out: Inhibition Rate at 500 nM (%); for Inhibition Rate at 500 nM (%): MM.1S, 96 hours
[2] = target: T6, human Cereblon WT GST-tagged protein (Homo sapiens, UniProt Q96SW2); assay: CRBN-binding affinity, HTRF (CEREBLON BINDING kit); settings: for inhibition at 0.5 µM: read-out: Inhibition Rate at 0.5 µM (%); for inhibition at 2 µM: read-out: Inhibition Rate at 2 µM (%)
T6 construct: purchased CISBIO 64BDCRBNPEH

[3] = Western blot, 24 hours of compound treatment, compounds tested at 50 nM and 500 nM (concentration for the table not stated)
[4] = 24 hours treatment, compounds at 50 nM and 500 nM (concentration behind the class not stated)

T5 sequence (P30291 whole entry): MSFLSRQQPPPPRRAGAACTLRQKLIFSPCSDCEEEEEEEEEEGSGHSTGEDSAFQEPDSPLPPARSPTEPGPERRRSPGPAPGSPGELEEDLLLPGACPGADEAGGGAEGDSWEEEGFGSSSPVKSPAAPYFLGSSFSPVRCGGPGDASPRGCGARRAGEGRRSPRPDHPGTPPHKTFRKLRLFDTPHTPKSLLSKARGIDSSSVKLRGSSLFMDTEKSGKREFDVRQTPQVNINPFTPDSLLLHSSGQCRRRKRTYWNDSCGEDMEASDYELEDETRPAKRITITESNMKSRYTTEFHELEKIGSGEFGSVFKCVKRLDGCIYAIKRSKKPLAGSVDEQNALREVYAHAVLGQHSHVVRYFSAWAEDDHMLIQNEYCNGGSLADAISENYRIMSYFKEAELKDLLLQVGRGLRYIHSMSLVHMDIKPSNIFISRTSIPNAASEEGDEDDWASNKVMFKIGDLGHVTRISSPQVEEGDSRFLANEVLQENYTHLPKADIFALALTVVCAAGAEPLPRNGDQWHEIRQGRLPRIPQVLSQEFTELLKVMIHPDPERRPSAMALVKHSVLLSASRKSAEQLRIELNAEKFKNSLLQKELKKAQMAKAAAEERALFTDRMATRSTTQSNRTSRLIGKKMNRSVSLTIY
T5 sequence (Q96SW2 whole entry): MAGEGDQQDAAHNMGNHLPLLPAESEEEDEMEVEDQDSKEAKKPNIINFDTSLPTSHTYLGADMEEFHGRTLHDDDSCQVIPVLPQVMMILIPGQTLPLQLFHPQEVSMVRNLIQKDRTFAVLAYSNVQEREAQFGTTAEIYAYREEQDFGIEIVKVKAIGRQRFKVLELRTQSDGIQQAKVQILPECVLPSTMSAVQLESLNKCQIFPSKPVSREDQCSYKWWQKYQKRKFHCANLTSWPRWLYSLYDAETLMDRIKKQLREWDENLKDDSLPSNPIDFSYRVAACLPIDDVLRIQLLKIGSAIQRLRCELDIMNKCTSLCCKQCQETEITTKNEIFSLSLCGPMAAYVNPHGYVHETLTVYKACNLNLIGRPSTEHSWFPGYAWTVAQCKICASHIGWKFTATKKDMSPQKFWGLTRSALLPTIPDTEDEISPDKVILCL
T5 sequence (Q16531 whole entry partner): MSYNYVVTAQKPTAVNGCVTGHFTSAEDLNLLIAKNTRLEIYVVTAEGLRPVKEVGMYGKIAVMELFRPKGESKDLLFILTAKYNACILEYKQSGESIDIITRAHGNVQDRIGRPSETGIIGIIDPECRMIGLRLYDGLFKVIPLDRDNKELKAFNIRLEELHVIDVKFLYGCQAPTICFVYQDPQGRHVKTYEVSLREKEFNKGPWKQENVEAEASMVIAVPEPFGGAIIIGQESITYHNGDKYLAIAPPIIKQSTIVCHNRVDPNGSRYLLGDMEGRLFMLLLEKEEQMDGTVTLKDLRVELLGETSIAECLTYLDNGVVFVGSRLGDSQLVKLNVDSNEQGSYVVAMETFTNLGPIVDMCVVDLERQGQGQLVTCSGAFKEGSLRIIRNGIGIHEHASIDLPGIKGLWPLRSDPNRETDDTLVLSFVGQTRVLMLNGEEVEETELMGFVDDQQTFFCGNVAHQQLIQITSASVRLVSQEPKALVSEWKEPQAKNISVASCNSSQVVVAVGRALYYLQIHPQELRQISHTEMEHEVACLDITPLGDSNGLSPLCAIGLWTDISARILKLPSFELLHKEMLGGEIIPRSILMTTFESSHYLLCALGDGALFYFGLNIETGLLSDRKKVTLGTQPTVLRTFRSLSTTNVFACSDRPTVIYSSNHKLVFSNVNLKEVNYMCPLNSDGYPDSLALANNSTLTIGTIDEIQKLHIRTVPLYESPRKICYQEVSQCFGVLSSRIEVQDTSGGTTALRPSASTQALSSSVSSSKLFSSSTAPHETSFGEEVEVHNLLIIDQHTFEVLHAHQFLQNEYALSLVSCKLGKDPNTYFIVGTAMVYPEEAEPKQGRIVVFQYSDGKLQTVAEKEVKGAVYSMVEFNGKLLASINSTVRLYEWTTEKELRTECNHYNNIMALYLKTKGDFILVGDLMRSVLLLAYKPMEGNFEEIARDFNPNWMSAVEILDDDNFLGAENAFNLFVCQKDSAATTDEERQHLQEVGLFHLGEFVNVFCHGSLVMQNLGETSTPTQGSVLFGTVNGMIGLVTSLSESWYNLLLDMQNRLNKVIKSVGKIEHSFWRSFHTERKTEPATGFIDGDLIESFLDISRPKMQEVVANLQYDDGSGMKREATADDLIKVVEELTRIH
T6 sequence (Q96SW2 whole entry): as the sequence (Q96SW2 whole entry) above
T2 sequence (Q13422 whole entry): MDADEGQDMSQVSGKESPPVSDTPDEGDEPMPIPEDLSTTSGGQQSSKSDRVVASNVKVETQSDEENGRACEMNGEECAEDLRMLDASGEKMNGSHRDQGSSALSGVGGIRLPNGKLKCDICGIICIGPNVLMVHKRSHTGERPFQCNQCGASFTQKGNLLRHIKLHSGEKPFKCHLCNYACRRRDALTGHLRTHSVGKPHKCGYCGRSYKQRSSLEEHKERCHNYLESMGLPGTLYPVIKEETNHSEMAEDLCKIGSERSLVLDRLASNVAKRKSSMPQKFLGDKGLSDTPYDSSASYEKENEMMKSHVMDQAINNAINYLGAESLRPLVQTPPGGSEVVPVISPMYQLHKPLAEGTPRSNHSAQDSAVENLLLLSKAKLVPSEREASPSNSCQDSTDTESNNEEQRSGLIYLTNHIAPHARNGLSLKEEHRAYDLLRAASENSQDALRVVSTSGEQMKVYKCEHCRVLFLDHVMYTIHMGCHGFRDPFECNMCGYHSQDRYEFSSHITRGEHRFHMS
T2 sequence (Q96SW2 whole entry): as the sequence (Q96SW2 whole entry) above
T2 sequence (Q16531 whole entry partner): as the sequence (Q16531 whole entry partner) above
T3 sequence (Q9UKS7 whole entry): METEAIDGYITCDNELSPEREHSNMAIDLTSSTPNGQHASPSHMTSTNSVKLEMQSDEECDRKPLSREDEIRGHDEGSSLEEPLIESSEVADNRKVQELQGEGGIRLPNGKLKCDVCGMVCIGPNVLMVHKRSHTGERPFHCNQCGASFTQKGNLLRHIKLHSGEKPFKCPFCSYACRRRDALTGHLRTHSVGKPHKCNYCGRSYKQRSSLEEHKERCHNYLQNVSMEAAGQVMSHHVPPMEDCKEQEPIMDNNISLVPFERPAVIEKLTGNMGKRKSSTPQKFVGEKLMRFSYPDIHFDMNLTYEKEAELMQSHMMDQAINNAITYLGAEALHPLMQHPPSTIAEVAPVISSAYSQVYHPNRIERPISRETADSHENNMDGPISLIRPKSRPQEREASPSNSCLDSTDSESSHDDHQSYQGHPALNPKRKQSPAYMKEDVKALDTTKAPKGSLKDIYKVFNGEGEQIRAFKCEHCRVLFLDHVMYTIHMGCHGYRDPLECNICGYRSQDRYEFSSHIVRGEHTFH
T3 sequence (Q96SW2 whole entry): as the sequence (Q96SW2 whole entry) above
T3 sequence (Q16531 whole entry partner): as the sequence (Q16531 whole entry partner) above
T1 sequence (P48729 whole entry): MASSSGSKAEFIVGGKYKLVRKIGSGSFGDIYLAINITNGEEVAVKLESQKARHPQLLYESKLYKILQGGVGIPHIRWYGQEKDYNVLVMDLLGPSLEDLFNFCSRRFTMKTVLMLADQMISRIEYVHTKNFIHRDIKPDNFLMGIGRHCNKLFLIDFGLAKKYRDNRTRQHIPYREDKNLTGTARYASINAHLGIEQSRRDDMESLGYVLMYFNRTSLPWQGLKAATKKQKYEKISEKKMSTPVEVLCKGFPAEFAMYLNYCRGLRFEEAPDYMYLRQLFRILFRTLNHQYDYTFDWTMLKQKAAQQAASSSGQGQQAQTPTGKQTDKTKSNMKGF
T1 sequence (Q96SW2 whole entry): as the sequence (Q96SW2 whole entry) above
T1 sequence (Q16531 whole entry partner): as the sequence (Q16531 whole entry partner) above
T4 sequence (Q9UKT9 whole entry): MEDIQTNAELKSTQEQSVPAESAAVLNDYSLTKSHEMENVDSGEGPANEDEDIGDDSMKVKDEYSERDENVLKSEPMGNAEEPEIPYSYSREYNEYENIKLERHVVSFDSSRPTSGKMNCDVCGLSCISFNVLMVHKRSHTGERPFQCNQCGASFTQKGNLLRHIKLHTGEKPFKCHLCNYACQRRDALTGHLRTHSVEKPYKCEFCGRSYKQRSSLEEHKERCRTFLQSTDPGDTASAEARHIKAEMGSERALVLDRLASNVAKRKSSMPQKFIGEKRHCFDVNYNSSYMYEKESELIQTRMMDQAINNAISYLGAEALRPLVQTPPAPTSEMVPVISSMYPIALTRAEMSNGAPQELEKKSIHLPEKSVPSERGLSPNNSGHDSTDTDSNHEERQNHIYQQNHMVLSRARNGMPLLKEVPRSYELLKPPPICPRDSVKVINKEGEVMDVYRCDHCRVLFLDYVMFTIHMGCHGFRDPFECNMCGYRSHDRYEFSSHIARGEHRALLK
T4 sequence (Q96SW2 whole entry): as the sequence (Q96SW2 whole entry) above
T4 sequence (Q16531 whole entry partner): as the sequence (Q16531 whole entry partner) above

## O=C1CCC(N2Cc3c(CN4CCC(c5ccc(F)cc5)CC4)cccc3C2=S)C(=O)N1 (stereo not shown) [GT-08596, 3-(4-((4-(4-fluorophenyl)piperidin-1-yl)methyl)-1-thioxoisoindolin-2-yl)piperidine-2,6-dione]
CK1α; [3]
  CK1α substrate protein remaining %: B (80%< substrate protein remaining %≤ 100%)
IKZF1; [3]
  IKZF 1 substrate protein remaining %: B (80%< substrate protein remaining %≤ 100%)
IKZF2; [3]
  IKZF2 substrate protein remaining %: A (0% ≤ substrate protein remaining % ≤ 80%)
IKZF3; [3]
  IKZF3 substrate protein remaining %: B (80%< substrate protein remaining %≤ 100%)
WEE1; [3]
  Wee1 substrate protein remaining %: A (0% ≤ substrate protein remaining % ≤ 80%)
GSPT1; [3]
  GSPT1 substrate protein remaining %: B (80%< substrate protein remaining %≤ 100%)
[1]; Homo sapiens, MM1.S, 96 h
  inhibition at 0.01 µM: 40 to 50%
  inhibition at 0.5 µM: 50 to 60%

## O=C1CCC(N2Cc3c(CN4CCC(c5ccccc5F)CC4)cccc3C2=S)C(=O)N1 (stereo not shown) [GT-08595, 3-(4-((4-(2-fluorophenyl)piperidin-1-yl)methyl)-1-thioxoisoindolin-2-yl)piperidine-2,6-dione]
CK1α; [3]
  CK1α substrate protein remaining %: B (80%< substrate protein remaining %≤ 100%)
IKZF1; [3]
  IKZF 1 substrate protein remaining %: B (80%< substrate protein remaining %≤ 100%)
IKZF2; [3]
  IKZF2 substrate protein remaining %: A (0% ≤ substrate protein remaining % ≤ 80%)
IKZF3; [3]
  IKZF3 substrate protein remaining %: B (80%< substrate protein remaining %≤ 100%)
WEE1; [3]
  Wee1 substrate protein remaining %: A (0% ≤ substrate protein remaining % ≤ 80%)
GSPT1; [3]
  GSPT1 substrate protein remaining %: B (80%< substrate protein remaining %≤ 100%)
[1]; Homo sapiens, MM1.S, 96 h
  inhibition at 0.01 µM: 40 to 50%
  inhibition at 0.5 µM: 50 to 60%

## O=C1CCC(N2Cc3c(CN4CC5CC(C4)N5c4cccc(Cl)c4Cl)cccc3C2=S)C(=O)N1 (stereo not shown) [GT-08466, 3-(4-((6-(2,3-dichlorophenyl)-3,6-diazabicyclo[3.1.1]heptan-3-yl)methyl)-1-thioxoisoindolin-2-yl)piperidine-2,6-dione]
CK1α; [3]
  CK1α substrate protein remaining %: B (80%< substrate protein remaining %≤ 100%)
IKZF1; [3]
  IKZF 1 substrate protein remaining %: B (80%< substrate protein remaining %≤ 100%)
IKZF2; [3]
  IKZF2 substrate protein remaining %: A (0% ≤ substrate protein remaining % ≤ 80%)
IKZF3; [3]
  IKZF3 substrate protein remaining %: B (80%< substrate protein remaining %≤ 100%)
WEE1; [3]
  Wee1 substrate protein remaining %: B (80%< substrate protein remaining %≤ 100%)
GSPT1; [3]
  GSPT1 substrate protein remaining %: A (0% ≤ substrate protein remaining % ≤ 80%)
[2]
  inhibition at 0.5 µM: 30 to 40%
  inhibition at 2 µM: 60 to 80%
[1]; Homo sapiens, MM1.S, 96 h
  inhibition at 0.01 µM: 20 to 30%
[1]
  Inhibition Rate at 500 nM (%): la7

## O=C1CCC(N2Cc3cc(CN4CC=C(c5ccnc6cc(F)ccc56)CC4)ccc3C2=S)C(=O)N1 (stereo not shown) [GT-05245, 3-(5-((4-(7-fluoroquinolin-4-yl)-3,6-dihydropyridin-1(2H)-yl)methyl)-1-thioxoisoindolin-2-yl)piperidine-2,6-dione]
CK1α; [3]
  CK1α substrate protein remaining %: B (80%< substrate protein remaining %≤ 100%)
IKZF1; [3]
  IKZF 1 substrate protein remaining %: B (80%< substrate protein remaining %≤ 100%)
IKZF2; [3]
  IKZF2 substrate protein remaining %: A (0% ≤ substrate protein remaining % ≤ 80%)
IKZF3; [3]
  IKZF3 substrate protein remaining %: A (0% ≤ substrate protein remaining % ≤ 80%)
WEE1; [3]
  Wee1 substrate protein remaining %: A (0% ≤ substrate protein remaining % ≤ 80%)
GSPT1; [3]
  GSPT1 substrate protein remaining %: A (0% ≤ substrate protein remaining % ≤ 80%)
[2]; CRBN binding, HTRF, 3 hours at room temperature, read-out: HTRF IC50
  IC50: < 100 nM
[1]; Homo sapiens, MM1.S, 96 h, read-out: Inhibitory activity (IC50, nM) on tumor cell proliferation, MM.1S
  IC50: 10 to 50 nM

## O=C1CCC(N2Cc3cc(CN4CCC(C5CCOc6cc(F)ccc65)CC4)ccc3C2=S)C(=O)N1 (stereo not shown) [GT-09274, 3-(5-((4-(7-fluorochroman-4-yl)piperidin-1-yl)methyl)-1-thioxoisoindolin-2-yl)piperidine-2,6-dione]
[2]
  inhibition at 0.5 µM: 60 to 80%
  inhibition at 2 µM: 80 to 100%
[1]; Homo sapiens, MM1.S, 96 h
  inhibition at 0.01 µM: 30 to 40%
  inhibition at 0.5 µM: 40 to 50%

## O=C1CCC(N2Cc3cc(CN4CCN(c5ncnc6sc(-c7ccccc7)cc56)CC4)ccc3C2=S)C(=O)N1 (stereo not shown) [GT-09296, 3-(5-((4-(6-phenylthieno[2,3-d]pyrimidin-4-yl)piperazin-1-yl)methyl)-1-thioxoisoindolin-2-yl)piperidine-2,6-dione]
[2]
  inhibition at 0.5 µM: 60 to 80%
  inhibition at 2 µM: 80 to 100%
[1]; Homo sapiens, MM1.S, 96 h
  inhibition at 0.01 µM: 40 to 50%
[1]
  Inhibition Rate at 500 nM (%): la7

## O=C1CCC(N2Cc3c(CN4CC=C(c5ncc6ccsc6n5)CC4)cccc3C2=S)C(=O)N1 (stereo not shown) [GT-08965, 3-(4-((4-(thieno[2,3-d]pyrimidin-2-yl)-3,6-dihydropyridin-1(2H)-yl)methyl)-1-thioxoisoindolin-2-yl)piperidine-2,6-dione]
[2]
  inhibition at 0.5 µM: 80 to 100%
  inhibition at 2 µM: 80 to 100%
[1]; Homo sapiens, MM1.S, 96 h
  inhibition at 0.01 µM: 30 to 40%
  inhibition at 0.5 µM: 40 to 50%

## Cc1csc2ncnc(N3CCN(Cc4cccc5c4CN(C4CCC(=O)NC4=O)C5=S)CC3)c12 (stereo not shown) [GT-08913, 3-(4-((4-(5-methylthieno[2,3-d]pyrimidin-4-yl)piperazin-1-yl)methyl)-1-thioxoisoindolin-2-yl)piperidine-2,6-dione]
CK1α; [4]
  CK1α substrate protein remaining %: B (80%< substrate protein remaining %≤ 100%)
IKZF1; [4]
  IKZF 1 substrate protein remaining %: B (80%< substrate protein remaining %≤ 100%)
IKZF2; [4]
  IKZF2 substrate protein remaining %: B (80%< substrate protein remaining %≤ 100%)
IKZF3; [4]
  IKZF3 substrate protein remaining %: B (80%< substrate protein remaining %≤ 100%)
WEE1; [4]
  Wee1 substrate protein remaining %: A (0% ≤ substrate protein remaining % ≤ 80%)
GSPT1; [4]
  GSPT1 substrate protein remaining %: B (80%< substrate protein remaining %≤ 100%)
[2]
  inhibition at 0.5 µM: 60 to 80%
  inhibition at 2 µM: 80 to 100%

## O=C1CCC(N2Cc3c(CN4CCN(c5cccnc5)CC4)cccc3C2=S)C(=O)N1 (stereo not shown) [GT-08706, 3-(4-((4-(pyridin-3-yl)piperazin-1-yl)methyl)-1-thioxoisoindolin-2-yl)piperidine-2,6-dione]
CK1α; [3]
  CK1α substrate protein remaining %: B (80%< substrate protein remaining %≤ 100%)
IKZF1; [3]
  IKZF 1 substrate protein remaining %: B (80%< substrate protein remaining %≤ 100%)
IKZF2; [3]
  IKZF2 substrate protein remaining %: A (0% ≤ substrate protein remaining % ≤ 80%)
IKZF3; [3]
  IKZF3 substrate protein remaining %: A (0% ≤ substrate protein remaining % ≤ 80%)
WEE1; [3]
  Wee1 substrate protein remaining %: A (0% ≤ substrate protein remaining % ≤ 80%)
GSPT1; [3]
  GSPT1 substrate protein remaining %: A (0% ≤ substrate protein remaining % ≤ 80%)
[2]
  inhibition at 0.5 µM: 53 to 60%
  inhibition at 2 µM: 80 to 100%

## O=C1CCC(N2Cc3c(CN4CCC(c5c[nH]c6ncccc56)CC4)cccc3C2=S)C(=O)N1 (stereo not shown) [GT-08848, 3-(4-((4-(1H-pyrrolo[2,3-b]pyridin-3-yl)piperidin-1-yl)methyl)-1-thioxoisoindolin-2-yl)piperidine-2,6-dione]
CK1α; [3]
  CK1α substrate protein remaining %: B (80%< substrate protein remaining %≤ 100%)
IKZF1; [3]
  IKZF 1 substrate protein remaining %: B (80%< substrate protein remaining %≤ 100%)
IKZF2; [3]
  IKZF2 substrate protein remaining %: B (80%< substrate protein remaining %≤ 100%)
IKZF3; [3]
  IKZF3 substrate protein remaining %: B (80%< substrate protein remaining %≤ 100%)
WEE1; [3]
  Wee1 substrate protein remaining %: A (0% ≤ substrate protein remaining % ≤ 80%)
GSPT1; [3]
  GSPT1 substrate protein remaining %: B (80%< substrate protein remaining %≤ 100%)
[2]
  inhibition at 0.5 µM: 30 to 40%
  inhibition at 2 µM: 80 to 100%

## O=C1CCC(N2Cc3c(CN4CCN(c5ncnc6sc(Br)cc56)CC4)cccc3C2=S)C(=O)N1 (stereo not shown) [GT-08918, 3-(4-((4-(6-bromothieno[2,3-d]pyrimidin-4-yl)piperazin-1-yl)methyl)-1-thioxoisoindolin-2-yl)piperidine-2,6-dione]
CK1α; [4]
  CK1α substrate protein remaining %: B (80%< substrate protein remaining %≤ 100%)
IKZF1; [4]
  IKZF 1 substrate protein remaining %: B (80%< substrate protein remaining %≤ 100%)
IKZF2; [4]
  IKZF2 substrate protein remaining %: B (80%< substrate protein remaining %≤ 100%)
IKZF3; [4]
  IKZF3 substrate protein remaining %: B (80%< substrate protein remaining %≤ 100%)
WEE1; [4]
  Wee1 substrate protein remaining %: A (0% ≤ substrate protein remaining % ≤ 80%)
GSPT1; [4]
  GSPT1 substrate protein remaining %: B (80%< substrate protein remaining %≤ 100%)
[2]
  inhibition at 0.5 µM: 60 to 80%
  inhibition at 2 µM: 80 to 100%

## O=C1CCC(N2Cc3c(CN4CCC(c5ccc(Cl)cc5)CC4)cccc3C2=S)C(=O)N1 (stereo not shown) [GT-08594, 3-(4-((4-(4-chlorophenyl)piperidin-1-yl)methyl)-1-thioxoisoindolin-2-yl)piperidine-2,6-dione]
CK1α; [3]
  CK1α substrate protein remaining %: B (80%< substrate protein remaining %≤ 100%)
IKZF1; [3]
  IKZF 1 substrate protein remaining %: B (80%< substrate protein remaining %≤ 100%)
IKZF2; [3]
  IKZF2 substrate protein remaining %: A (0% ≤ substrate protein remaining % ≤ 80%)
IKZF3; [3]
  IKZF3 substrate protein remaining %: B (80%< substrate protein remaining %≤ 100%)
WEE1; [3]
  Wee1 substrate protein remaining %: A (0% ≤ substrate protein remaining % ≤ 80%)
GSPT1; [3]
  GSPT1 substrate protein remaining %: B (80%< substrate protein remaining %≤ 100%)
[2]
  inhibition at 0.5 µM: 30 to 40%
  inhibition at 2 µM: 53 to 60%

## O=C1CCC(N2Cc3c(CN4CCC(c5cccc(C(F)(F)F)c5)CC4)cccc3C2=S)C(=O)N1 (stereo not shown) [GT-08599, 3-(1-thioxo-4-((4-(3-(trifluoromethyl)phenyl)piperidin-1-yl)methyl)isoindolin-2-yl)piperidine-2,6-dione]
CK1α; [3]
  CK1α substrate protein remaining %: B (80%< substrate protein remaining %≤ 100%)
IKZF1; [3]
  IKZF 1 substrate protein remaining %: B (80%< substrate protein remaining %≤ 100%)
IKZF2; [3]
  IKZF2 substrate protein remaining %: B (80%< substrate protein remaining %≤ 100%)
IKZF3; [3]
  IKZF3 substrate protein remaining %: B (80%< substrate protein remaining %≤ 100%)
WEE1; [3]
  Wee1 substrate protein remaining %: A (0% ≤ substrate protein remaining % ≤ 80%)
GSPT1; [3]
  GSPT1 substrate protein remaining %: B (80%< substrate protein remaining %≤ 100%)
[2]
  inhibition at 0.5 µM: 30 to 40%
  inhibition at 2 µM: 60 to 80%
